Results from article PMC13011345, “Computational and experimental identification of potential neutralizing peptides derived from human ACE2 against SARS-CoV-2 infection” (Journal of Virology, 2026).
Ends that are not written are not given here.

System: pseudotyped SARS-CoV-2 particle (VSV-SARS-CoV-2-S virus, Wuhan-Hu-1 spike) infecting BHK21-hACE2 cells
Details: 1 h

Sequence | IC50 [nM]
AWDLGKGDFRIL [ACE348–359] | 31.2
HIQYDMAYAAQPFLLRNG [ACE378–395] | 3.8
LPNMTQGFWENSML [ACE320–333] | 43.9
QKLFNMLRLGKS [ACE552–563] | 12.5
